Source: patent US7034047B2, “Triazole derivative” (Astellas Pharma, Inc., priority 2000, dated 2006)

Assays:
[1] = molecular target: T1, GLYT1 subtype of the glycine transporter (Rattus norvegicus, UniProt P28572); assay: [3H]-glycine uptake assay in C6 glioma cells (action of inhibiting glycine transporter); type: cell-based; details: 20 min at 37° C., read-out: GLYT-inhibiting activity IC50
T1 construct: C6 glioma cell expressing GLYT1 subtype of the glycine transporter; host or cells: C6 glioma cells
T1 sequence (P28572 1-638): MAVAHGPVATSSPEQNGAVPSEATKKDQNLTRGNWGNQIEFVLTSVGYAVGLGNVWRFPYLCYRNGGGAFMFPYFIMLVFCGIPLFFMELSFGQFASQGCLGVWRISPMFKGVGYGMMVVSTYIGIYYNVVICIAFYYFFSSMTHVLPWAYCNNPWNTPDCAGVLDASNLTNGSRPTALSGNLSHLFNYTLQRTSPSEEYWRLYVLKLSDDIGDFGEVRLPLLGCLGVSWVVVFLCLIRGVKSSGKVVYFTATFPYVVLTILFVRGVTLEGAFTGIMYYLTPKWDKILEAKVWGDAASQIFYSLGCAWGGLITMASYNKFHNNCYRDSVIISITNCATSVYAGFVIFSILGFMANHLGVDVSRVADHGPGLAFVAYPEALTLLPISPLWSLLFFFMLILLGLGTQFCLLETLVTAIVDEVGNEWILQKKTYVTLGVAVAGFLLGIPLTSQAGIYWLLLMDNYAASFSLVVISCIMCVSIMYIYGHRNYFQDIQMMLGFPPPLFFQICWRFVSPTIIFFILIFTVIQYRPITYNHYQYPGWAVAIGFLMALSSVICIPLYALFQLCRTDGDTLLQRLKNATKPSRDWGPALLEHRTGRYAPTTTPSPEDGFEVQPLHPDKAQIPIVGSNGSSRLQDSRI
Protocol: 1. Action of Inhibiting Glycine Transporter
C6 glioma cell (American Type Culture Collection) was cultured in DMEM containing 10% fetal bovine serum, 100 units/ml penicillin G and 0.1 mg/ml streptomycin sulfate in a CO2 incubator under conditions of 5% CO2 and 37° C.
[^3H]-glycine uptake was performed by the method of Gomeza, et al.
C6 glioma cells were plated out at a concentration of 2×10^4 cells/well in a 96-well plate (Culturplate, Packard Co.), for culturing for 2 days. Subsequently, [^3H]-glycine uptake was tested. The cell was rinsed once in a buffer (150 mM NaCl, 5 mM KCl, 1 mM CaCl2, 1 mM MgCl2, 10 mM glucose, 5 mM L-alanine, 10 mM Hepes-Na, pH 7.4), followed by subsequent addition of the buffer, for incubation at 37° C. for 10 minutes.
After incubation, the buffer was exchanged to a reaction buffer including [^3H]-glycine (about 0.2 μM, 41 Ci/mmol, New England Nuclear)and a compound to be assessed, for incubation at 37° C. for another 20 minutes. After 20-min reaction, the reaction mixture was rinsed in ice-cold PBS (phosphate buffered saline). The cell was dissolved in 0.1N NaOH solution, to assay the radioactivity incorporated with a liquid scintillation counter. The specific incorporation was defined as a portion substituted with 3 mM sarcosine in the total incorporation. The test compound was assessed by determining the incorporation-inhibiting ratio of the specific incorporation.

[2] = system: (+)-HA966-induced learning disability; assay: (+)-HA966-induced learning disability (mouse passive avoidance test); type: in vivo, male ddY mouse; details: dosed intraperitoneally; step-through latency, p<0.05
Excerpt: 3. (+)-HA966-Induced Learning Disability (Mouse Passive Avoidance Test)
• Animal: male ddY mouse (Nippon SLC; age 7 to 9 weeks at training) was used. 16 to 32 animals were used per one group. <Experimental Procedures> Preparation of Pharmaceutical Drugs • (1) A test compound for oral administration was suspended in aqueous 0.5%methyl cellulose solution, and for intraperitoneal administration was suspended in solution dissolved 0.5% of methyl cellulose solution in saline (hereinafter referred to as 0.5% methyl cellulose solution). The administration volume was 10 ml per 1 kg·body weight. […]
• (1) On day 1 at the learning experiment, the mice were acclimated in an experimental room for one hour or longer. • (2) A test compound or the vehicle was orally or intraperitoneally given. • (3) 20 minutes thereafter, (+)-HA966 was administered at 60 μg intracerebroventriculally. • (4) 15 minutes after the dosing of (+)-HA966, the each mouse was placed in the bright room of the experimental apparatus of the passive avoidance reaction test, where the mouse was left for 30 seconds. […] A significance was determined at p<0.05.

CC(C)c1nnc(-c2ccc(-c3ccccc3)cc2)n1-c1ccccc1F [Production Example 1, 3-Biphenyl-4-yl-4-(2-fluorophenyl)-5-isopropyl-4H-1,2,4-triazole]
IC50 [1]: 360 nM | minimum effective dose [2]: 3 mg/kg
